Laboratory results: ChEMBL document CHEMBL4732235, “Design, synthesis, and evaluation of transition-state analogs as inhibitors of the bacterial quorum sensing autoinducer synthase CepI” (Bioorg Med Chem Lett, 2021)
The source made the active and inactive calls. The calls are words filed in the database; no cut-off is given here.

Key:
[1] = Inhibition of Burkholderia cenocepacia synthase CepI assessed as liberation of ACP thiol using SAM as substrate by DCPIP method
[2] = system: Burkholderia cenocepacia; assay: Inhibition of Burkholderia cenocepacia synthase CepI assessed as liberation of ACP thiol using SAM as substrate at 100 uM by DCPIP method
[3] = system: Burkholderia cenocepacia; assay: Binding affinity to Burkholderia cenocepacia synthase CepI assessed as stabilization of protein in presence of trypsin at 50 uM by standard colorimetric trypsin assay

Row | IC50 [1] [µM] | inhibition [2] | Activity [3] | Compound
1 | 100 | Active |  | CCCCCCCC(=O)N[C@@H]1C[C@H](CSC[C@H]2O[C@@H](n3cnc4c(N)ncnc43)[C@H](O)[C@@H]2O)OC1=O
2 | 1 | Active | Active | CCCCCCCC(=O)N[C@H]1C[C@@H](CSC[C@H]2O[C@@H](n3cnc4c(N)ncnc43)[C@H](O)[C@@H]2O)OC1=O
